In PubChem BioAssay (NCI):
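Five compound concentrations were applied to cells in 96-well plates for 48 hours; endpoints were derived by simple linear interpolation of the resulting dose-response curve. TGI denotes the concentration required for complete inhibition of growth.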

Experiments:
Assay in all cases: DTP human tumour cell line panel, 48 h
786-0 renal = tested on: 786-0 renal
A498 renal = tested on: A498 renal
A549 NSCLC = tested on: A549 NSCLC
BT-549 breast = tested on: BT-549 breast
CAKI-1 renal = tested on: CAKI-1 renal
CCRF-CEM leukemia = tested on: CCRF-CEM leukemia
COLO 205 colon = tested on: COLO 205 colon
DU-145 prostate = tested on: DU-145 prostate
HCC-2998 colon = tested on: HCC-2998 colon
HCT-116 colon = tested on: HCT-116 colon
HCT-15 colon = tested on: HCT-15 colon
HL-60(TB) leukemia = tested on: HL-60(TB) leukemia
HOP-62 NSCLC = tested on: HOP-62 NSCLC
HOP-92 NSCLC = tested on: HOP-92 NSCLC
HS 578T breast = tested on: HS 578T breast
HT29 colon = tested on: HT29 colon
IGROV1 ovarian = tested on: IGROV1 ovarian
K-562 leukemia = tested on: K-562 leukemia
KM12 colon = tested on: KM12 colon
LOX IMVI melanoma = tested on: LOX IMVI melanoma
M14 melanoma = tested on: M14 melanoma
MALME-3M melanoma = tested on: MALME-3M melanoma
MCF7 breast = tested on: MCF7 breast
MDA-MB-231 breast = tested on: MDA-MB-231 breast
MDA-MB-435 = tested on: MDA-MB-435
MDA-N = tested on: MDA-N
MOLT-4 leukemia = tested on: MOLT-4 leukemia
NCI-H226 lung = tested on: NCI-H226 lung
NCI-H23 lung = tested on: NCI-H23 lung
NCI-H460 lung = tested on: NCI-H460 lung
NCI-H522 lung = tested on: NCI-H522 lung
NCI/ADR-RES ovarian = tested on: NCI/ADR-RES ovarian
OVCAR-3 ovarian = tested on: OVCAR-3 ovarian
OVCAR-4 ovarian = tested on: OVCAR-4 ovarian
OVCAR-5 ovarian = tested on: OVCAR-5 ovarian
OVCAR-8 ovarian = tested on: OVCAR-8 ovarian
PC-3 prostate = tested on: PC-3 prostate
RPMI-8226 leukemia = tested on: RPMI-8226 leukemia
RXF 393 renal = tested on: RXF 393 renal
SF-268 CNS = tested on: SF-268 CNS
SF-295 CNS = tested on: SF-295 CNS
SF-539 CNS = tested on: SF-539 CNS
SK-MEL-2 melanoma = tested on: SK-MEL-2 melanoma
SK-MEL-28 melanoma = tested on: SK-MEL-28 melanoma
SK-MEL-5 melanoma = tested on: SK-MEL-5 melanoma
SN12C renal = tested on: SN12C renal
SNB-19 CNS = tested on: SNB-19 CNS
SNB-75 CNS = tested on: SNB-75 CNS
SR leukemia = tested on: SR leukemia
SW-620 colon = tested on: SW-620 colon
T-47D breast = tested on: T-47D breast
TK-10 renal = tested on: TK-10 renal
U251 CNS = tested on: U251 CNS
UACC-257 melanoma = tested on: UACC-257 melanoma
UACC-62 melanoma = tested on: UACC-62 melanoma
UO-31 renal = tested on: UO-31 renal
ACHN renal = tested on: ACHN renal
EKVX NSCLC = tested on: EKVX NSCLC
SK-OV-3 ovarian = tested on: SK-OV-3 ovarian

Measured: TGI

CC(=O)OCC1OC(N2C(S)=C(C#N)C(c3ccco3)C(C(C)=O)=C2c2ccccc2)C(OC(C)=O)C(OC(C)=O)C1OC(C)=O (stereo unspecified)
48.4 µM: HS 578T breast
95.2 µM: HOP-92 NSCLC
94 µM: SF-295 CNS
45.1 µM: HOP-62 NSCLC
91.4 µM: UO-31 renal
44.8 µM: OVCAR-4 ovarian
not listed: ACHN renal | EKVX NSCLC | SK-OV-3 ovarian
> 100 µM: all other assays above

O=C1OC(=O)C2C1C(c1ccccc1[N+](=O)[O-])C=C(c1ccco1)N2c1ccncc1 (stereo unspecified)
52.6 µM: MDA-MB-435 | NCI/ADR-RES ovarian
1.44 µM: SR leukemia
6.13 µM: HT29 colon
30.5 µM: OVCAR-3 ovarian
6.84 µM: UACC-257 melanoma
12.8 µM: HCT-15 colon
35.2 µM: SNB-75 CNS
15.3 µM: UO-31 renal
35.5 µM: SNB-19 CNS
25 µM: SN12C renal
31.9 µM: NCI-H460 lung
37.5 µM: CAKI-1 renal
18.8 µM: MDA-N
28.1 µM: PC-3 prostate
14 µM: T-47D breast
3.31 µM: HCT-116 colon
5.33 µM: K-562 leukemia
36.4 µM: UACC-62 melanoma
19.7 µM: DU-145 prostate | SK-MEL-5 melanoma
6.73 µM: MCF7 breast
16.6 µM: SF-539 CNS
> 50.5 µM: M14 melanoma
51.6 µM: OVCAR-5 ovarian
4.4 µM: RPMI-8226 leukemia
29.8 µM: OVCAR-4 ovarian
6.17 µM: NCI-H522 lung
4.65 µM: KM12 colon
5.63 µM: HL-60(TB) leukemia
39.7 µM: EKVX NSCLC
17 µM: CCRF-CEM leukemia
> 100 µM: HS 578T breast
> 26.9 µM: TK-10 renal
32.9 µM: MDA-MB-231 breast
12 µM: U251 CNS
46.3 µM: SF-268 CNS
> 39.2 µM: NCI-H226 lung
24.5 µM: SF-295 CNS | SK-MEL-28 melanoma
6.38 µM: MOLT-4 leukemia
38.2 µM: HOP-62 NSCLC
23.9 µM: COLO 205 colon
3.97 µM: 786-0 renal
31.6 µM: A549 NSCLC
15.8 µM: HOP-92 NSCLC
40.6 µM: MALME-3M melanoma
19.8 µM: SK-MEL-2 melanoma
26.2 µM: NCI-H23 lung
15 µM: SW-620 colon
26.9 µM: A498 renal
32 µM: SK-OV-3 ovarian
31.8 µM: OVCAR-8 ovarian
19.1 µM: RXF 393 renal
3.24 µM: ACHN renal
5.3 µM: IGROV1 ovarian
3.82 µM: LOX IMVI melanoma
35.4 µM: BT-549 breast

CSC1=C(C(=O)Nc2ccccc2)C(N)=NC1=O
not listed: HOP-62 NSCLC | HOP-92 NSCLC | IGROV1 ovarian | M14 melanoma | OVCAR-3 ovarian | OVCAR-5 ovarian | SF-295 CNS | ACHN renal
> 100 µM: all other assays above

Cc1cc(O)c(C(c2ccncc2)c2c(O)cc(C)[nH]c2=O)c(=O)[nH]1
not listed: A498 renal | HCC-2998 colon | HOP-92 NSCLC | NCI-H226 lung | SF-539 CNS | SK-MEL-2 melanoma | SNB-75 CNS | SW-620 colon
> 100 µM: all other assays above
